In the NIST ThermoML archive (doi:10.1016/j.jct.2016.09.026):
± gives the expanded uncertainty stated by the source.

Key:
[1] = Crystal
[2] = Molar enthalpy of transition or fusion; details: Crystal; DSC
[3] = molar enthalpy of vaporization or sublimation; details: 351.22 K; Crystal; Static calorimetry
[4] = molar heat capacity at constant pressure; details: 101.33 kPa, Crystal, Small sample (50 mg) DSC

CCCC(=O)c1ccc(O)cc1 [1-(4-hydroxyphenyl)-1-butanone]
Details | mass density [kg/m3]
[1], 298 K, 101.33 kPa, X-ray diffraction | 1204.5 ± 7.1

Details | Normal melting temperature [°C] | molar heat capacity at constant pressure [J/K/mol]
[1], DTA | 91.6 ± 0.4 | –
[4], 288.67 K | – | 219.2 ± 14
[4], 289.99 K | – | 221.2 ± 15
[4], 291.29 K | – | 221.3 ± 14
[4], 291.6 K | – | 222 ± 15
[4], 292.87 K | – | 223.3 ± 15
[4], 294.14 K | – | 224.2 ± 14
[4], 295.4 K | – | 225.7 ± 13
[4], 296.66 K | – | 227.4 ± 12
[4], 297.92 K | – | 228.6 ± 13
[4], 299.17 K | – | 229.2 ± 12
[4], 300.43 K | – | 231 ± 12
[4], 301.68 K | – | 232.3 ± 10
[4], 302.94 K | – | 232.9 ± 11
[4], 304.19 K | – | 234.6 ± 7.7
[4], 305.45 K | – | 234.9 ± 9.2
[4], 306.7 K | – | 236.9 ± 9.5
[4], 307.95 K | – | 238.6 ± 8.6
[4], 309.21 K | – | 239.7 ± 7.8
[4], 310.46 K | – | 240.7 ± 7.8
[4], 311.71 K | – | 242 ± 7.2
[4], 312.96 K | – | 243.7 ± 7.8
[4], 314.21 K | – | 244.9 ± 6.2
[4], 315.46 K | – | 245.8 ± 5.9
[4], 316.71 K | – | 247 ± 4.7
[4], 317.96 K | – | 247.7 ± 6.2
[4], 319.22 K | – | 249.1 ± 5
[4], 320.47 K | – | 250.2 ± 4
[4], 321.72 K | – | 251.4 ± 5.5
[4], 322.97 K | – | 253 ± 5.2
[4], 324.23 K | – | 254.5 ± 6
[4], 325.48 K | – | 256.4 ± 5
[4], 326.73 K | – | 257.1 ± 6.3
[4], 327.98 K | – | 258.9 ± 6.5
[4], 329.23 K | – | 260.2 ± 6.5
[4], 330.48 K | – | 262.1 ± 7.6
[4], 331.73 K | – | 263.6 ± 7.7
[4], 332.98 K | – | 265.5 ± 6.3
[4], 334.23 K | – | 265.9 ± 7.7
[4], 335.48 K | – | 267.6 ± 7.1
[4], 336.73 K | – | 270.1 ± 6.6
[4], 337.98 K | – | 270.4 ± 7.7
[4], 339.23 K | – | 272 ± 8
[4], 340.48 K | – | 274.4 ± 10
[4], 341.73 K | – | 276 ± 8.9
[4], 342.98 K | – | 278.2 ± 11
[4], 344.23 K | – | 279.7 ± 10
[4], 345.48 K | – | 281.2 ± 12
[4], 346.73 K | – | 282.8 ± 11
[4], 347.98 K | – | 284.5 ± 12
[4], 349.23 K | – | 287 ± 13
[4], 350.48 K | – | 289 ± 12

Details | Molar enthalpy of transition or fusion [kcal/mol] | molar enthalpy [kcal/mol]
[2] | 5.73 ± 0.129 | –
[3] | – | 27.3 ± 0.406
